Assay results published in patent publication US20220096450A1, “Compounds and Methods for Treating or Preventing Heart Failure” (DREXEL UNIVERSITY, priority 2019, published 2022).
Where two headings read alike, the source gives them in different places.

Target: SQOR (Homo sapiens, UniProt Q9Y6N5)
Assay: DCIP endpoint assay of SQOR activity
Format: biochemical
Protocol: The assay is based on the ability of reduced CoQ1, which is produced in the SQOR reaction, to nonenzymically reduce 2,6-dichloroindiphenol (DCIP) (Δεox-red=20 mM−1 cm−1 at 600 nm). Reaction mixtures containing SQOR, substrates (H2S, sulfite, CoQ1) and various concentrations of an inhibitor are incubated in 96-well plates for 60 s. The reactions are quenched by addition of formaldehyde and N-ethylmaleimide to denature SQOR and consume unreacted H2S, respectively, and are then incubated for 10 min prior to addition of DCIP. The absorbance at 600 nm is read 30 s after DCIP addition by using a BioTek Synergy 2 plate reader.

[1] = Table 1, SAR of Set A/A′ and Set B, read-out: IC50

Sequence of SQOR (Q9Y6N5 whole entry): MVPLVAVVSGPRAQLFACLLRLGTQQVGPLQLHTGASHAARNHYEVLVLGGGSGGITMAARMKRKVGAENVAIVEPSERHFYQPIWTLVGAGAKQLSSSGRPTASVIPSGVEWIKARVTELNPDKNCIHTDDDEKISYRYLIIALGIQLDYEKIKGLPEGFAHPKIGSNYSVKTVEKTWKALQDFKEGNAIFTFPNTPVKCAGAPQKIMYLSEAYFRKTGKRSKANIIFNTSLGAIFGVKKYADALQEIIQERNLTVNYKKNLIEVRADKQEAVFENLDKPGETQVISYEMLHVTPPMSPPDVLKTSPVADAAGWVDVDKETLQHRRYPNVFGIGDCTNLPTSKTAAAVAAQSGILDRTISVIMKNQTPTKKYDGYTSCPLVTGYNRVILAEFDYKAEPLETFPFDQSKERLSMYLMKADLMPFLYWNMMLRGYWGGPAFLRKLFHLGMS

IC50 (Table 3, read-out: IC50) [µM] | Structure (SMILES) | other results
0.27 | Cc1cccnc1-c1cc(-c2ccc(F)cc2)c(C#N)c(OCCN2CCOCC2)n1 [2-(2-Morpholinoethoxy)-4-(4-fluorophenyl)-6-(3-methylpyridin-2-yl)pyridine-3-carbonitrile] | 
2.7 | Cc1cccnc1-c1cc(-c2ccc(F)cc2)c(C#N)c(OCCCN(C)C)n1 [2-(3-(Dimethylamino)propoxy)-4-(4-fluorophenyl)-6-(3-methylpyridin-2-yl)pyridine-3-carbonitrile] | 
2.2 | CN(C)CCCOc1nc(-c2ccccn2)cc(-c2ccc(F)cc2)c1C#N [2-(3-(Dimethylamino)propoxy)-4-(4-fluorophenyl)-6-(pyridin-2-yl)pyridine-3-carbonitrile] | 
0.032 | Cc1cccnc1-c1cc(-c2ccc(F)cc2)c(C#N)c(OCc2ccccn2)n1 [2-((Pyridin-2-yl)methoxy)-4-(4-fluorophenyl)-6-(3-methylpyridin-2-yl)pyridine-3-carbonitrile] | 
0.04 | Cc1cccnc1-c1cc(-c2ccc(F)cc2)c(C#N)c(OCc2cccnc2)n1 [2-((Pyridin-3-yl)methoxy)-4-(4-fluorophenyl)-6-(3-methylpyridin-2-yl)pyridine-3-carbonitrile] | 
0.12 | Cc1cccnc1-c1cc(-c2ccc(F)cc2)c(C#N)c(OCc2ccncc2)n1 [2-((Pyridin-4-yl)methoxy)-4-(4-fluorophenyl)-6-(3-methylpyridin-2-yl)pyridine-3-carbonitrile] | 
2.7 | N#Cc1c(-c2ccc(F)cc2)cc(-c2ccccn2)nc1OC[C@H]1CCC(=O)N1 [2-((R)-5-(Methoxy)pyrrolidin-2-one)-4-(4-fluorophenyl)-6-(pyridin-2-yl)pyridine-3-carbonitrile] | 
39 | N#Cc1c(-c2ccc(F)cc2)cc(-c2ccccn2)nc1OC[C@@H]1CCC(=O)N1 [2-((S)-5-(Methoxy)pyrrolidin-2-one)-4-(4-fluorophenyl)-6-(pyridin-2-yl)pyridine-3-carbonitrile] | 
0.0072 | C=CCOc1nc(-c2ccccn2)cc(-c2ccc(F)cc2)c1C#N [2-(Allyloxy)-4-(4-fluorophenyl)-6-(pyridin-2-yl)pyridine-3-carbonitrile] | 
0.025 | N#CCOc1nc(-c2ccccn2)cc(-c2ccc(F)cc2)c1C#N [2-(Cyanomethoxy)-4-(4-fluorophenyl)-6-(pyridin-2-yl)pyridine-3-carbonitrile] | 
0.44 | COc1nc(-c2ccccc2)cc(-c2ccccc2)c1C [2-Methoxy-3-methyl-4,6-diphenylpyridine] | 
48 | COc1nc(-c2ccccc2)cc(-c2cccc([N+](=O)[O-])c2)c1C#N [2-Methoxy-4-(3-nitrophenyl)-6-phenylpyridine-3-carbonitrile] | 
0.67 | COc1ccc(-c2cc(-c3ncccc3C)nc(OC)c2C#N)cc1 [2-Methoxy-4-(4-methoxyphenyl)-6-(3-methylpyridin-2-yl)pyridine-3-carbonitrile] | 
1.5 | COc1nc(-c2ccccc2)cc(-c2cccc(N)c2)c1C#N [4-(3-Aminophenyl)-2-methoxy-6-phenylpyridine-3-carbonitrile] | 
1.9 | COc1nc(-c2ccccc2)cc(-c2cccc(O)c2)c1C#N [4-(3-Hydroxyphenyl)-2-methoxy-6-phenylpyridine-3-carbonitrile] | 
0.092 | COc1nc(-c2ccccc2)cc(-c2ccc(N)cc2)c1C#N [4-(4-Aminophenyl)-2-methoxy-6-phenylpyridine-3-carbonitrile] | 
0.007 | COc1nc(-c2ccccc2[N+](=O)[O-])cc(-c2ccc(F)cc2)c1C#N [4-(4-Fluorophenyl)-2-methoxy-6-(2-nitrophenyl)pyridine-3-carbonitrile] | 
1 | COc1nc(-c2ccc(O)cc2)cc(-c2ccc(F)cc2)c1C#N [4-(4-Fluorophenyl)-6-(4-hydroxyphenyl)-2-methoxypyridine-3-carbonitrile] | 

IC50 (Table 3, read-out: IC50) [µM] | Structure (SMILES) | other results
0.48 | COc1nc(-c2ccccc2)cc(-c2ccc(O)cc2)c1C#N [4-(4-Hydroxyphenyl)-2-methoxy-6-phenylpyridine-3-carbonitrile] | 
14 | Cc1cccnc1-c1cc(-c2ccc(F)cc2)c(C#N)c(=O)n1CCN1CCOCC1 [4-(4-fluorophenyl)-1,2-dihydro-6-(3-methylpyridin-2-yl)-1-(2-morpholinoethyl)-2-oxopyridine-3-carbonitrile] | 
10 | Cc1cccnc1-c1cc(-c2ccc(F)cc2)c(C#N)c(=O)n1Cc1cccnc1 [4-(4-fluorophenyl)-1,2-dihydro-6-(3-methylpyridin-2-yl)-2-oxo-1-((pyridin-3-yl)methyl)pyridine-3-carbonitrile] | 
0.23 | COc1nc(-c2cccc(O)c2)cc(-c2ccc(F)cc2)c1C#N [4-(4-fluorophenyl)-6-(3-hydroxyphenyl)-2-methoxypyridine-3-carbonitrile] | 
0.68 | COc1nc(-c2ccccn2)cc(-c2ccco2)c1C#N [4-(Furan-2-yl)-2-methoxy-6-(pyridin-2-yl)pyridine-3-carbonitrile] | 
0.12 | CCOc1nc(-c2ccccc2)nc(-c2ccccc2)c1C#N [4-Ethoxy-2,6-diphenylpyrimidine-5-carbonitrile] | 
0.23 | COc1nc(-c2ccccc2N)cc(-c2ccc(F)cc2)c1C#N [6-(2-Aminophenyl)-4-(4-fluorophenyl)-2-methoxypyridine-3-carbonitrile] | 
 | CCOc1nc2c(c(-c3ccc(F)cc3)c1C#N)Cc1ccccc1-2 [Compound 1, 2-ethoxy-4-(4-fluorophenyl)-5H-indeno[1,2-b]pyridine-3-carbonitrile] | IC50 (read-out: IC50 against SQOR): 0.0094 µM
 | O=[N+]([O-])c1cc(Cl)c(-n2cccc2)cc1N1CCCCC1 [Compound 2, 1-(4-chloro-2-nitro-5-(1H-pyrrol-1-yl)phenyl)piperidine] | IC50 [1]: 0.025 µM
 | Cc1ccc(Sc2cc(N3CCOCC3)c(C)cc2[N+](=O)[O-])cc1 [Compound 3, 4-(2-methyl-4-nitro-5-(p-tolylthio)phenyl)morpholine] | IC50 (Table 2, SAR of Set C, read-out: IC50): 0.008 µM
 | COc1nc2c(c(-c3ccccc3)c1C#N)Cc1ccccc1-2 [Compound 4, 2-methoxy-4-phenyl-5H-indeno[1,2-b]pyridine-3-carbonitrile] | IC50 [1]: 0.021 µM
 | CCOc1nc2c(c(-c3ccc(OC)cc3)c1C#N)Cc1ccccc1-2 [Compound 5, 2-ethoxy-4-(4-methoxyphenyl)-5H-indeno[1,2-b]pyridine-3-carbonitrile] | IC50 [1]: 0.26 µM
 | COc1nc2c(c(-c3ccccc3Cl)c1C#N)Cc1ccccc1-2 [Compound 6, 4-(2-chlorophenyl)-2-methoxy-5H-indeno[1,2-b]pyridine-3-carbonitrile] | IC50 [1]: 0.34 µM
 | COc1nc2c(c(-c3ccc(SC)cc3)c1C#N)Cc1ccccc1-2 [Compound 7, 2-methoxy-4-(4-(methylthio)phenyl)-5H-indeno[1,2-b]pyridine-3-carbonitrile] | IC50 [1]: 0.88 µM
 | COc1nc2c(c(-c3ccc(C(F)(F)F)cc3)c1C#N)Cc1ccccc1-2 [Compound 8, 2-methoxy-4-(4-(trifluoromethyl)phenyl)-5H-indeno[1,2-b]pyridine-3-carbonitrile] | IC50 [1]: 1.1 µM
 | COc1nc2c(c(-c3cc(Cl)ccc3F)c1C#N)Cc1ccccc1-2 [Compound 9, 4-(5-chloro-2-fluorophenyl)-2-methoxy-5H-indeno[1,2-b]pyridine-3-carbonitrile] | IC50 [1]: 3.5 µM
 | COc1cccc(-c2c(C#N)c(OC)nc3c2Cc2ccccc2-3)c1 [Compound 10, 2-methoxy-4-(3-methoxyphenyl)-5H-indeno[1,2-b]pyridine-3-carbonitrile] | IC50 [1]: 6.1 µM
